# Measurements taken from patent US20200232989A1 (UNIVERSITE D'AIX-MARSEILLE, priority 2017, published 2020).
# Legend:
# [1] = PFS of patients in the retrospective validation cohort, split by sCD146 variation; format: in vivo, human; conditions: retrospective/confirmation cohort
# Method: 13 patients from the HEPG (France) (50 mg/day, once daily for four weeks) were analyzed retrospectively.
# (§1) PFS was defined as the time between blood sample collection and progression, or death from any cause, censoring those alive and progression free at last follow-up. OS was defined as the time from blood sample collection to the date of death from any cause, censoring those alive at last follow-up.
# (§2) The % variation of sCD146 between diagnosis and after 1 cycle of suntinib cut-off point was determined at 120%. Kaplan Meier method was used to produce survival curves and analyses of censored data were performed using Cox models.
# [2] = tested on: HUVEC; experiment: Cell viability/metabolism (XTT) in HUVEC; format: cell-based; conditions: 48 h
# Method: FIG. 7. Regulation of expression of CD146 and angiomotin (Amot) is differently regulated in endothelial cells. […] CD146 (A) and angiomotin (B) were analyzed by qPCR. […] The cell metabolism was measured by XTT assay. […] The cell metabolism was measured by XTT assay. Results are represented as the mean of three independent experiments±SEM. * p<0.05, ** p<0.01, *** p<0.001.
# (§3) Fifty microliters of sodium 3′-[1-phenylaminocarbonyl)-3,4-tetrazolium]-bis(4-methoxy-6-nitro) benzene sulfonic acid hydrate (XTT) reagent was added to each well. The assay is based on the cleavage of the yellow tetrazolium salt XTT to form an orange formazan dye by metabolically active cells. The absorbance of the formazan product, reflecting cell viability, was measured at 490 nm. Each assay was performed in quadruplicate.
# [3] = Survival (PFS, OS) of metastatic ccRCC patients in the prospective cohort (SUVEGIL and TORAVA trials), split by sCD146 variation; format: in vivo, human
# Description: Eligible patients for SUVEGIL and TORAVA trials were at least 18 years of age and had metastatic clear cell renal cell carcinoma (ccRCC) histologically confirmed, with the presence of measurable disease according to Response Evaluation Criteria in Solid Tumors (RECIST) v1.1. […] Patients were ineligible if they had symptomatic or uncontrolled brain metastases, an estimated lifetime less than 3 months, uncontrolled hypertension or clinically significant cardiovascular events (heart failure, prolongation of the QTinterval), history of other primary cancer. All patients gave written informed consent.
# The prospective cohort includes patients from the SUVEGIL and TORAVA trials.
# The SUVEGIL trial (clinicaltrial.gov, NCT00943839) was a multicenter prospective single-arm study. […] Courses repeat every 6 weeks in the absence of disease progression or unacceptable toxicity.
# The TORAVA trial (clinicaltrial.gov, NCT00619268) was a randomized prospective study. Patient characteristics and results have been previously described (Negrier et al, 2011).
# The % variation of plasmatic level of sCD146 was correlated with OS and PFS, defined respectively as the time from inclusion in the trial to death from all causes (for OS) and to progression, treatment cessation, or death (for PFS), censored at last follow-up for those still alive or who have not progressed.
# as §1, §2
# [4] = tested on: sCD146; experiment: ELISA of sCD146 protein in 786/786R cell supernatants; format: cell-based; conditions: 786R cells; 10 μg/ml, 48 hr
# Method: D, sCD146 protein in cell supernatants was evaluated by ELISA. […] Results are represented as the mean of three independent experiments±SEM.* p<0.05, ** p<0.01, *** p<0.001.
# A, 786 and 786R cells were treated with 10 μg/ml BVZ for 48 hr. sCD146 protein in cell supernatants were evaluated by ELISA. […] Results are represented as the mean of three independent experiments±SEM. * p<0.05, ** p<0.01, *** p<0.001.
# [5] = tested on: 786 cells; experiment: Cell viability/metabolism (XTT) in 786 cells; format: cell-based; conditions: sCD146 50 and 100 ng/ml, 48 h
# Method: FIG. 4. […] The mRNA levels of CD146 total (A), long (B) and short forms (C) and angiomotin (E) were evaluated by qPCR. D, sCD146 protein in cell supernatants was evaluated by ELISA. […] The cell metabolism was measured by XTT assay. Results are represented as the mean of three independent experiments±SEM.* p<0.05, ** p<0.01, *** p<0.001.
# as §3
# [6] = patients with sCD146 plasmatic level increase ≥120% between diagnosis and first cycle of treatment
# [7] = patients with sCD146 variation <120% between diagnosis and first cycle of treatment
Molecule,PFS ([1]; patients with modulation of sCD146 <120%) [months],PFS ([1]; patients with sCD146 ≥120%) [months],"decrease in cell proliferation ([2]; HUVEC, 1 or 2 μM)","median PFS [3, 6] [months]","median PFS [3, 7] [months]",median OS ([3]; patients with sCD146 ≥120%) [months],sCD146 secretion [4],median OS ([3]; patients with sCD146 <120%) [months],"protection from sunitinib ([2]; HUVEC treated with sunitinib, recombinant sCD146 50 or 100 ng/ml)","proliferation of HUVEC ([2]; HUVEC, recombinant sCD146 50 or 100 ng/ml)",effect on sunitinib-dependent decrease of cell metabolism ([5]; 786 cells treated with 2.5 or 5 μM sunitinib),cell metabolism ([5]; 786 cells)
CCN(CC)CCNC(=O)c1c(C)[nH]c(/C=C2\C(=O)Nc3ccc(F)cc32)c1C [sunitinib],24.8,2.3,about 50%,5.7,20.5,11,–,–,–,–,–,–
bevacizumab,–,–,–,10.5,10.7,24.1,no increase in sCD146 secretion,24.4,–,–,–,–
sCD146: soluble form of CD146 generated by shedding of the membrane form; used as recombinant protein in cell assays,–,–,–,–,–,–,–,–,did not protect HUVEC from sunitinib,stimulated the proliferation of HUVEC,prevents sunitinib-dependent decreased cell metabolism,increased cell metabolism at both concentrations
